What all share (format): biochemical
One experiment has as its target human SMG-1 (hSMG-1) (Homo sapiens, UniProt Q96Q15). As to the kind of experiment: hSMG-1 kinase assay (DELFIA). The note with it: read-out: hSMG1 IC50.
The target in another experiment is Human mTOR (Homo sapiens, UniProt P42345). Kind of experiment: mTOR kinase assay (DELFIA format, purified enzyme). Set-up: FLAG.
The next experiment concerns the target PI3K-alpha (Homo sapiens, UniProt P42336). As to the kind of experiment: PI3K-alpha fluorescence polarization assay. To be noted: read-out: PI3 Kinase α IC50. The method in brief: (§1)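 Diluted enzyme and compound (1% DMSO) reacted with diC8 PIP2 and ATP substrate in 20 mM HEPES pH 7.5, 2 mM MgCl2, 0.05% CHAPS for 30–60 min. Stopped with EDTA buffer holding 10 nM TAMRA probe and 70 nM GST-GRP. FP (mP) read after 30–90 min against zero-time and no-enzyme controls.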
In general terms: Fluorescence polarisation rises when a labelled molecule tumbles more slowly, as on binding a larger partner.

For another experiment, the target named is PI3K-gamma (Homo sapiens, UniProt P48736). As to the kind of experiment: PI3K-gamma fluorescence polarization assay. To be noted: read-out: PI3 Kinase γ IC50. The method, boiled down: as §1
PI3K-gamma, sequence (P48736 whole entry, species assumed): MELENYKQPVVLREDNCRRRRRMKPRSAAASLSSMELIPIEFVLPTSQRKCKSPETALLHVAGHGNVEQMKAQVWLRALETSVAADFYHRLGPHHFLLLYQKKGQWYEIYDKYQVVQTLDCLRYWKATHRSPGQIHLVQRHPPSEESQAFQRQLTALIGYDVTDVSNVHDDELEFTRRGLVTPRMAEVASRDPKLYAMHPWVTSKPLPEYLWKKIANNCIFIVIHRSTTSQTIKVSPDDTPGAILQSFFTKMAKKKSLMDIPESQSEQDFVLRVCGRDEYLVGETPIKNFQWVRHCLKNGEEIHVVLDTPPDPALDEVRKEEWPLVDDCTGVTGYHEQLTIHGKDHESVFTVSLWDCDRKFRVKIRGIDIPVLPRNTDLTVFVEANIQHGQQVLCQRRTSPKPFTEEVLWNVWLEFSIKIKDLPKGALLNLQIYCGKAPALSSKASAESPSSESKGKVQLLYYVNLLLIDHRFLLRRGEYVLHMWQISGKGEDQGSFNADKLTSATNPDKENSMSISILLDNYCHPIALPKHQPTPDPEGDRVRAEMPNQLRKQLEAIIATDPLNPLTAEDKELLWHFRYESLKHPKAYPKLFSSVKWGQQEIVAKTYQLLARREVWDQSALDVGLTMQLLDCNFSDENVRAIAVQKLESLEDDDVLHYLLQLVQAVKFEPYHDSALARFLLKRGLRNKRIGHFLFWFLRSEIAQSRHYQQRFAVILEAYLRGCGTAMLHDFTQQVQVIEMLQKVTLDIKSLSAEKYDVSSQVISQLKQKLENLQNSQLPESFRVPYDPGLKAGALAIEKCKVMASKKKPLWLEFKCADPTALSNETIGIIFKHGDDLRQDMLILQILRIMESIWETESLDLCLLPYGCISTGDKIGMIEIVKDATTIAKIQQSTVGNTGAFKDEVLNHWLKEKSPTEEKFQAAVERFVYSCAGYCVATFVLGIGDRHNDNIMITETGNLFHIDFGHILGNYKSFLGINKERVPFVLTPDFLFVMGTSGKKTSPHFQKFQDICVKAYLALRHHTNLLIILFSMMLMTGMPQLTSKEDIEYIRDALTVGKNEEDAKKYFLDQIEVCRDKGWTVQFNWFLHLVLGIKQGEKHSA

pIC50: −log10 of the molar value. Like-named read-outs stand apart in the source and are kept apart here. A value given as a limit tells only on which side of the number the result lay.

human SMG-1 (hSMG-1), sequence (Q96Q15 whole entry): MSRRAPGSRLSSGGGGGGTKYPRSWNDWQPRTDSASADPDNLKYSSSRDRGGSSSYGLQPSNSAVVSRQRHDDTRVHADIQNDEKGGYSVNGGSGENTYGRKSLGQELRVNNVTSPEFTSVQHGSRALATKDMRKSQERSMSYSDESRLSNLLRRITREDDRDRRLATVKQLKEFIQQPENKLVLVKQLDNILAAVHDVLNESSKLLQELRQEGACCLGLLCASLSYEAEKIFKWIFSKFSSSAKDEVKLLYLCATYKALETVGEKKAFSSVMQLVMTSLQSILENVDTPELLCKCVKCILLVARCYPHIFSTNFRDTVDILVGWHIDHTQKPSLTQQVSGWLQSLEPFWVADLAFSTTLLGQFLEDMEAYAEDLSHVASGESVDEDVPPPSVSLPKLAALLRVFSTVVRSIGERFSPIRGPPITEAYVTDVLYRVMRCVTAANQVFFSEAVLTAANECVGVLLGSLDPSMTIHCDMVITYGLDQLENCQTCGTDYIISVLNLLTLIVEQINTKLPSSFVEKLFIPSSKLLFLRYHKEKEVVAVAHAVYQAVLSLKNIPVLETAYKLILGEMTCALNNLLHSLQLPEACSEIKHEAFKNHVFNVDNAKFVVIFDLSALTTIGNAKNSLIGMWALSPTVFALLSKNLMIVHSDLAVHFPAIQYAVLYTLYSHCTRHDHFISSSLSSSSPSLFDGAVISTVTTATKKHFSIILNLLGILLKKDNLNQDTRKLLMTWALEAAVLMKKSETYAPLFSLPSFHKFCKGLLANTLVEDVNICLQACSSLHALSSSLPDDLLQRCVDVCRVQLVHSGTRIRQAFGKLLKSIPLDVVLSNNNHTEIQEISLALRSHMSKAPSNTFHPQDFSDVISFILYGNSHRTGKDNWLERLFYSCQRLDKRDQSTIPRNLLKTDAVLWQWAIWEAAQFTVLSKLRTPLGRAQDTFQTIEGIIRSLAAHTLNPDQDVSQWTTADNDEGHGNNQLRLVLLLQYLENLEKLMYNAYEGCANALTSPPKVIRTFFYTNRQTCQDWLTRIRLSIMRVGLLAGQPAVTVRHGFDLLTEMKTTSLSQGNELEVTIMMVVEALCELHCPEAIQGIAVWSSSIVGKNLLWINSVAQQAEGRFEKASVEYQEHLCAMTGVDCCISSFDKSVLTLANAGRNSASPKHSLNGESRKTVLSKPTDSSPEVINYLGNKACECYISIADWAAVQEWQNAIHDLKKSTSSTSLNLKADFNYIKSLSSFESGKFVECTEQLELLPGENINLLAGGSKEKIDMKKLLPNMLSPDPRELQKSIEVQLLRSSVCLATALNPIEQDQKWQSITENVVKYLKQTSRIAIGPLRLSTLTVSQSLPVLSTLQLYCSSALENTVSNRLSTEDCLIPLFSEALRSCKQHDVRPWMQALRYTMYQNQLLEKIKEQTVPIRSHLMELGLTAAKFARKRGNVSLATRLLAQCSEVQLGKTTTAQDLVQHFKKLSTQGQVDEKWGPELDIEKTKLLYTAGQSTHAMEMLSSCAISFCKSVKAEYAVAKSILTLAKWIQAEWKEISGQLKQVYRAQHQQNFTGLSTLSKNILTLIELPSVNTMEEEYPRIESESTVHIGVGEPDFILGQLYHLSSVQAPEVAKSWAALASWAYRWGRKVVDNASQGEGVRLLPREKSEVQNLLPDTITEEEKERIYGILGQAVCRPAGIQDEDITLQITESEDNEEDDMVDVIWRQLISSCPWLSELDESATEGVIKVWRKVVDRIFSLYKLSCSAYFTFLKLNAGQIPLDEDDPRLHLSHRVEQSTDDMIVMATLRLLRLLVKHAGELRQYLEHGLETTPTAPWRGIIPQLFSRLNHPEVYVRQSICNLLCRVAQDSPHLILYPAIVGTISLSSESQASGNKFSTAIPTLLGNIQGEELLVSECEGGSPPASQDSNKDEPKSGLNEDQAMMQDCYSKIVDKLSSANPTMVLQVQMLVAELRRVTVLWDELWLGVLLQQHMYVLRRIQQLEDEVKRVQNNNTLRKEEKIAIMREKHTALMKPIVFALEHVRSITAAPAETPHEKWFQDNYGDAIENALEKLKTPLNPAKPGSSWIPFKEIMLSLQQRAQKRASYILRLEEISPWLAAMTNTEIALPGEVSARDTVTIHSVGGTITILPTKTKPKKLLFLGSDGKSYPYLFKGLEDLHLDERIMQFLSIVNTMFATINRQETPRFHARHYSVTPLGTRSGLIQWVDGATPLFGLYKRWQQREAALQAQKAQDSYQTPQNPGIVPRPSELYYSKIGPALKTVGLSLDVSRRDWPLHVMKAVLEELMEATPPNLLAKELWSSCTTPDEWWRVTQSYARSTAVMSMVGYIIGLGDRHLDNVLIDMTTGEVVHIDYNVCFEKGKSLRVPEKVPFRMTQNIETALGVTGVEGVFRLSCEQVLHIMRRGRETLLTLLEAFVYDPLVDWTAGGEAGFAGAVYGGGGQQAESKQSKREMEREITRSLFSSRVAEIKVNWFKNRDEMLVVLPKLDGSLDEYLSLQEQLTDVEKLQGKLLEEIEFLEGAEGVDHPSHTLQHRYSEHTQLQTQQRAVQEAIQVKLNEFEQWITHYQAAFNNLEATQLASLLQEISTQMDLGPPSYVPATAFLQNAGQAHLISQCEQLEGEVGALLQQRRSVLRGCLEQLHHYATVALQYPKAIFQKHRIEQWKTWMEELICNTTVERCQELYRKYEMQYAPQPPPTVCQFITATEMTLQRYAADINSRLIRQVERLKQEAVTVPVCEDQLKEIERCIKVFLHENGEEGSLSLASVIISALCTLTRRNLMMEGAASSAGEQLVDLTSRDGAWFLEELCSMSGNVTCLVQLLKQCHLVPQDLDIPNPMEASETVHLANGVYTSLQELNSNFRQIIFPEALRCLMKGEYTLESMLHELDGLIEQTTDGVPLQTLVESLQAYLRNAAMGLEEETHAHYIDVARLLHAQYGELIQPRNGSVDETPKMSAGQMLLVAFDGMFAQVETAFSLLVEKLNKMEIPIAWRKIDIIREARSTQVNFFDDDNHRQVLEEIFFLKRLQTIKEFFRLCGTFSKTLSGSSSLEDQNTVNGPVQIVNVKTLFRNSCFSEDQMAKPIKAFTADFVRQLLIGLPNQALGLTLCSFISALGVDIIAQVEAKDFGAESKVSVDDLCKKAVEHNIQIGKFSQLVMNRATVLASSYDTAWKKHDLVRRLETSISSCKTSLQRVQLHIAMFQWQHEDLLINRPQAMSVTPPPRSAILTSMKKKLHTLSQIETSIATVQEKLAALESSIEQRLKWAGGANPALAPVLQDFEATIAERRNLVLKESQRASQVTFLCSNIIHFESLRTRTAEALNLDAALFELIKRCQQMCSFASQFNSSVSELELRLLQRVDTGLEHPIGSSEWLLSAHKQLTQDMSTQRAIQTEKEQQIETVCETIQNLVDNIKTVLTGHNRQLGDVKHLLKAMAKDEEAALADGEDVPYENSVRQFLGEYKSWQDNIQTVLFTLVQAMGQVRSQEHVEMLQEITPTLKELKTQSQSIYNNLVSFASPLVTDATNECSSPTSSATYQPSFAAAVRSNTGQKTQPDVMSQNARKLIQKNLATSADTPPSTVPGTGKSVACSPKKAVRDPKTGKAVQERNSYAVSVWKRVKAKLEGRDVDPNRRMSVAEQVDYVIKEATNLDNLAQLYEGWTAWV

Take `COC(=O)Nc1ccc(-c2nc(N3CCOCC3)c3ccc4c(ccn4CCN(C)C)c3n2)cc1` [Example 98, methyl (4-{7-[2-(dimethylamino)ethyl]-4-morpholin-4-yl-7H-pyrrolo[2,3-h]quinazolin-2-yl}phenyl)carbamate]: the values for the pIC50 at human SMG-1 (hSMG-1) and on Human mTOR (read-out: TOR Kinase IC50) were below 4.70 and 5.70, respectively.
For the molecule `Cn1ccc2c3nc(-c4ccc(NC(=O)NCC(F)(F)F)cc4)nc(N4CCOCC4)c3ccc21` [Example 119, 1-[4-(7-methyl-4-morpholin-4-yl-7H-pyrrolo[2,3-h]quinazolin-2-yl)phenyl]-3-(2,2,2-trifluoroethyl)urea], the pIC50 on human SMG-1 (hSMG-1) was 5.19; at Human mTOR (read-out: TOR Kinase IC50), 5.90.
In the case of `Cn1ccc2c3nc(-c4cccc(NC(=O)Nc5cccnc5)c4)nc(N4CCOCC4)c3ccc21` [Example 123, 1-[3-(7-methyl-4-morpholin-4-yl-7H-pyrrolo[2,3-h]quinazolin-2-yl)phenyl]-3-pyridin-3-ylurea], the pIC50 is 5.26 on human SMG-1 (hSMG-1) and 5.59 on Human mTOR (read-out: TOR Kinase IC50).
The matching figures for `CCCOC(=O)Nc1ccc(-c2nc(N3CCOCC3)c3ccc4c(ccn4S(C)(=O)=O)c3n2)cc1` [Example 109, propyl {4-[7-(methylsulfonyl)-4-morpholin-4-yl-7H-pyrrolo[2,3-h]quinazolin-2-yl]phenyl}carbamate]: below 4.70 and 5.69.
As for `Cn1ccc2c3nc(-c4ccc(NC(=O)NC5CCC5)cc4)nc(N4CCOCC4)c3ccc21` [Example 106, 1-cyclobutyl-3-[4-(7-methyl-4-morpholin-4-yl-7H-pyrrolo[2,3-h]quinazolin-2-yl)phenyl]urea], the negative logarithm of the IC50 (pIC50) at human SMG-1 (hSMG-1) was 4.78; on Human mTOR (read-out: TOR Kinase IC50), 5.82.
The matching figures for `Cn1ccc2c3nc(-c4cccc(NC(=O)C5CC5)c4)nc(N4CCOCC4)c3ccc21` [Example 125, N-[3-(7-methyl-4-morpholin-4-yl-7H-pyrrolo[2,3-h]quinazolin-2-yl)phenyl]cyclopropanecarboxamide]: below 4.70 and 5.89.
The matching figures for `CCCNC(=O)Nc1cccc(-c2nc(N3CCOCC3)c3ccc4c(ccn4C)c3n2)c1` [Example 127, 1-[3-(7-methyl-4-morpholin-4-yl-7H-pyrrolo[2,3-h]quinazolin-2-yl)phenyl]-3-propylurea]: 4.81 and 5.82.
The matching figures for `COCCNC(=O)Nc1ccc(-c2nc(N3CCOCC3)c3ccc4c(ccn4C)c3n2)cc1` [Example 101, 1-(2-methoxyethyl)-3-[4-(7-methyl-4-morpholin-4-yl-7H-pyrrolo[2,3-h]quinazolin-2-yl)phenyl]urea]: below 4.70 and 5.74.
As for `CC(=O)Nc1ccc(-c2nc(N3CCOCC3)c3ccc4c(ccn4CCN(C)C)c3n2)cc1` [Example 112, N-(4-{7-[2-(dimethylamino)ethyl]-4-morpholin-4-yl-7H-pyrrolo[2,3-h]quinazolin-2-yl}phenyl)acetamide], the pIC50 at human SMG-1 (hSMG-1) was below 4.70; at Human mTOR (read-out: TOR Kinase IC50), 5.55.
The matching figures for `Cn1ccc2c3nc(-c4ccc(NC(=O)NC5CCS(=O)(=O)C5)cc4)nc(N4CCOCC4)c3ccc21` (stereo not drawn) [Example 117, 1-(1,1-dioxidotetrahydrothiophen-3-yl)-3-[4-(7-methyl-4-morpholin-4-yl-7H-pyrrolo[2,3-h]quinazolin-2-yl)phenyl]urea]: below 4.70 and 6.22.
The matching figures for `Cn1ccc2c3nc(-c4ccc(NC(=O)NC5CCCC5)cc4)nc(N4CCOCC4)c3ccc21` [Example 105, 1-cyclopentyl-3-[4-(7-methyl-4-morpholin-4-yl-7H-pyrrolo[2,3-h]quinazolin-2-yl)phenyl]urea]: below 4.70 and 5.69.
In the case of `Cn1ccc2c3nc(-c4ccc(NC(=O)NC5CCCCC5)cc4)nc(N4CCOCC4)c3ccc21` [Example 108, 1-cyclohexyl-3-[4-(7-methyl-4-morpholin-4-yl-7H-pyrrolo[2,3-h]quinazolin-2-yl)phenyl]urea], the pIC50 on human SMG-1 (hSMG-1) was below 4.70; at Human mTOR (read-out: TOR Kinase IC50) it was 5.14.
The matching figures for `Cc1noc(C)c1NC(=O)Nc1ccc(-c2nc(N3CCOCC3)c3ccc4c(ccn4C)c3n2)cc1` [Example 116, 1-(3,5-dimethylisoxazol-4-yl)-3-[4-(7-methyl-4-morpholin-4-yl-7H-pyrrolo[2,3-h]quinazolin-2-yl)phenyl]urea]: below 4.70 and 5.89.
For the molecule `CC(=O)c1cccc(NC(=O)Nc2ccc(-c3nc(N4CCOCC4)c4ccc5c(ccn5C)c4n3)cc2)c1` [Example 114, 1-(3-acetylphenyl)-3-[4-(7-methyl-4-morpholin-4-yl-7H-pyrrolo[2,3-h]quinazolin-2-yl)phenyl]urea], the figures for the pIC50 at human SMG-1 (hSMG-1) and on Human mTOR were 4.98 and 5.26, respectively.
As to `CN(C)CCn1ccc2c3nc(-c4ccc(NC(=O)Nc5cccnc5)cc4)nc(N4CCOCC4)c3ccc21` [Example 111, 1-(4-{7-[2-(dimethylamino)ethyl]-4-morpholin-4-yl-7H-pyrrolo[2,3-h]quinazolin-2-yl}phenyl)-3-pyridin-3-ylurea], the negative-log IC50 (pIC50) is 6.93 on PI3K-alpha, 6.07 on PI3K-gamma, 6.54 on human SMG-1 (hSMG-1) and 7.82 at Human mTOR (read-out: TOR Kinase IC50).
Regarding `CN(C)CCn1ccc2c3nc(-c4ccc(NC(=O)C5CC5)cc4)nc(N4CCOCC4)c3ccc21` [Example 96, N-(4-{7-[2-(dimethylamino)ethyl]-4-morpholin-4-yl-7H-pyrrolo[2,3-h]quinazolin-2-yl}phenyl)cyclopropanecarboxamide], the results for the pIC50 on human SMG-1 (hSMG-1) and on Human mTOR (read-out: TOR Kinase IC50) were below 4.70 and 5.28, respectively.
The matching figures for `CCC(=O)Nc1cccc(-c2nc(N3CCOCC3)c3ccc4c(ccn4C)c3n2)c1` [Example 129, N-[3-(7-methyl-4-morpholin-4-yl-7H-pyrrolo[2,3-h]quinazolin-2-yl)phenyl]propanamide]: below 4.70 and 5.82.
The matching figures for `Cn1ccc2c3nc(-c4ccc(NC(=O)NCCF)cc4)nc(N4CCOCC4)c3ccc21` [Example 118, 1-(2-fluoroethyl)-3-[4-(7-methyl-4-morpholin-4-yl-7H-pyrrolo[2,3-h]quinazolin-2-yl)phenyl]urea]: 4.82 and 6.20.
For the molecule `CC(C)NC(=O)Nc1ccc(-c2nc(N3CCOCC3)c3ccc4c(ccn4C)c3n2)cc1` [Example 99, 1-(1-methylethyl)-3-[4-(7-methyl-4-morpholin-4-yl-7H-pyrrolo[2,3-h]quinazolin-2-yl)phenyl]urea], the negative logarithm of the IC50 (pIC50) was 4.84 on human SMG-1 (hSMG-1) and 6.67 on Human mTOR (read-out: TOR Kinase IC50).
For the molecule `CNC(=O)Nc1ccc(-c2nc(N3CCOCC3)c3ccc4c(ccn4CCN(C)C)c3n2)cc1` [Example 113, 1-(4-{7-[2-(dimethylamino)ethyl]-4-morpholin-4-yl-7H-pyrrolo[2,3-h]quinazolin-2-yl}phenyl)-3-methylurea], the pIC50 at PI3K-alpha was 6.37; on PI3K-gamma, 5.51; at human SMG-1 (hSMG-1), 6.31; at Human mTOR (read-out: TOR Kinase IC50) it was 7.17.
As for `Cn1ccc2c3nc(-c4ccc(NC(=O)NCCCN5CCCC5)cc4)nc(N4CCOCC4)c3ccc21` [Example 104], the pIC50 was below 4.70 at human SMG-1 (hSMG-1) and 5.62 at Human mTOR (read-out: TOR Kinase IC50).
In the case of `Cn1ccc2c3nc(-c4ccc(NC(=O)NCCc5ccncc5)cc4)nc(N4CCOCC4)c3ccc21` [Example 120, 1-[4-(7-methyl-4-morpholin-4-yl-7H-pyrrolo[2,3-h]quinazolin-2-yl)phenyl]-3-(2-pyridin-4-ylethyl)urea], the pIC50 on human SMG-1 (hSMG-1) was 5.48; at Human mTOR (read-out: TOR Kinase IC50) it was 6.20.

In general, pIC50 refers to the negative decadic logarithm of the IC50, by convention in mol/L.

Values taken from patent US20090227575A1, “7H-PYRROLO[2,3-H]QUINAZOLINE COMPOUNDS, THEIR USE AS mTOR KINASE AND PI3 KINASE INHIBITORS, AND THEIR [sequence]” (Wyeth, priority 2008, published 2009).
